Test: xn = mol fraction of the nth substance listed
Details: 101 kPa, Liquid; for speed of sound: Sing-around technique in a fixed-path interferometer; for mass density: Vibrating tube method

CCCCCCCCCCCC[n+]1ccn(C)c1.[Cl-] [1-dodecyl-3-methylimidazolium chloride] + O
Details | mass density [kg/m3] | speed of sound [m/s]
283 K, x1 = 2.7e-05 | 999.688 | –
283 K, x1 = 3e-05 | 999.704 | –
283 K, x1 = 4.8e-05 | 999.71 | –
283 K, x1 = 7.4e-05 | 999.71 | –
283 K, x1 = 9.4e-05 | 999.705 | –
283 K, x1 = 0.000109 | 999.71 | –
283 K, x1 = 0.000129 | 999.718 | –
283 K, x1 = 0.000145 | 999.717 | –
283 K, x1 = 0.000163 | 999.735 | –
283 K, x1 = 0.000181 | 999.724 | –
283 K, x1 = 0.000208 | 999.73 | –
283 K, x1 = 0.000234 | 999.729 | –
283 K, x1 = 0.000248 | 999.744 | –
283 K, x1 = 0.000273 | 999.743 | –
283 K, x1 = 0.000286 | 999.744 | –
283 K, x1 = 0.000302 | 999.732 | –
283 K, x1 = 0.000319 | 999.749 | –
283 K, x1 = 0.000341 | 999.737 | –
283 K, x1 = 0.000384 | 999.728 | –
283 K, x1 = 0.000407 | 999.721 | –
283 K, x1 = 0.000428 | 999.712 | –
283 K, x1 = 0.0027 | – | 1448.4
283 K, x1 = 0.003 | – | 1448.5
283 K, x1 = 0.0048 | – | 1448.8
283 K, x1 = 0.0074 | – | 1449.3
283 K, x1 = 0.0094 | – | 1449.7
283 K, x1 = 0.0109 | – | 1449.9
283 K, x1 = 0.0129 | – | 1450.2
283 K, x1 = 0.0145 | – | 1450.5
283 K, x1 = 0.0163 | – | 1450.8
283 K, x1 = 0.0181 | – | 1451.2
283 K, x1 = 0.0208 | – | 1451.7
283 K, x1 = 0.0234 | – | 1452
283 K, x1 = 0.0248 | – | 1452.2
283 K, x1 = 0.0273 | – | 1452.6
283 K, x1 = 0.0286 | – | 1452.7
283 K, x1 = 0.0302 | – | 1452.8
283 K, x1 = 0.0319 | – | 1453.1
283 K, x1 = 0.0341 | – | 1453.5
283 K, x1 = 0.0384 | – | 1453.5
283 K, x1 = 0.0407 | – | 1453.7
283 K, x1 = 0.0428 | – | 1453.7
288 K, x1 = 2.7e-05 | 999.099 | –
288 K, x1 = 3e-05 | 999.118 | –
288 K, x1 = 4.8e-05 | 999.119 | –
288 K, x1 = 7.4e-05 | 999.115 | –
288 K, x1 = 9.4e-05 | 999.109 | –
288 K, x1 = 0.000109 | 999.114 | –
288 K, x1 = 0.000129 | 999.12 | –
288 K, x1 = 0.000145 | 999.116 | –
288 K, x1 = 0.000163 | 999.133 | –
288 K, x1 = 0.000181 | 999.119 | –
288 K, x1 = 0.000208 | 999.122 | –
288 K, x1 = 0.000234 | 999.12 | –
288 K, x1 = 0.000248 | 999.133 | –
288 K, x1 = 0.000273 | 999.127 | –
288 K, x1 = 0.000286 | 999.125 | –
288 K, x1 = 0.000302 | 999.113 | –
288 K, x1 = 0.000319 | 999.128 | –
288 K, x1 = 0.000341 | 999.116 | –
288 K, x1 = 0.000384 | 999.108 | –
288 K, x1 = 0.000407 | 999.096 | –
288 K, x1 = 0.000428 | 999.082 | –
288 K, x1 = 0.0027 | – | 1466.7
288 K, x1 = 0.003 | – | 1466.8
288 K, x1 = 0.0048 | – | 1467.1
288 K, x1 = 0.0074 | – | 1467.6
288 K, x1 = 0.0094 | – | 1467.9
288 K, x1 = 0.0109 | – | 1468.1
288 K, x1 = 0.0129 | – | 1468.4
288 K, x1 = 0.0145 | – | 1468.6
288 K, x1 = 0.0163 | – | 1468.9
288 K, x1 = 0.0181 | – | 1469.2
288 K, x1 = 0.0208 | – | 1469.7
288 K, x1 = 0.0234 | – | 1470
288 K, x1 = 0.0248 | – | 1470.2
288 K, x1 = 0.0273 | – | 1470.5
288 K, x1 = 0.0286 | – | 1470.6
288 K, x1 = 0.0302 | – | 1470.7
288 K, x1 = 0.0319 | – | 1470.9
288 K, x1 = 0.0341 | – | 1471
288 K, x1 = 0.0384 | – | 1471
288 K, x1 = 0.0407 | – | 1471.2
288 K, x1 = 0.0428 | – | 1471.2
293 K, x1 = 2.7e-05 | 998.213 | –
293 K, x1 = 3e-05 | 998.232 | –
293 K, x1 = 4.8e-05 | 998.233 | –
293 K, x1 = 7.4e-05 | 998.224 | –
293 K, x1 = 9.4e-05 | 998.217 | –
293 K, x1 = 0.000109 | 998.222 | –
293 K, x1 = 0.000129 | 998.227 | –
293 K, x1 = 0.000145 | 998.219 | –
293 K, x1 = 0.000163 | 998.236 | –
293 K, x1 = 0.000181 | 998.221 | –
293 K, x1 = 0.000208 | 998.22 | –
293 K, x1 = 0.000234 | 998.218 | –
293 K, x1 = 0.000248 | 998.227 | –
293 K, x1 = 0.000273 | 998.218 | –
293 K, x1 = 0.000286 | 998.214 | –
293 K, x1 = 0.000302 | 998.2 | –
293 K, x1 = 0.000319 | 998.213 | –
293 K, x1 = 0.000341 | 998.199 | –
293 K, x1 = 0.000384 | 998.191 | –
293 K, x1 = 0.000407 | 998.175 | –
293 K, x1 = 0.000428 | 998.16 | –
293 K, x1 = 0.0027 | – | 1482.9
293 K, x1 = 0.003 | – | 1483
293 K, x1 = 0.0048 | – | 1483.3
293 K, x1 = 0.0074 | – | 1483.7
293 K, x1 = 0.0094 | – | 1484
293 K, x1 = 0.0109 | – | 1484.2
293 K, x1 = 0.0129 | – | 1484.5
293 K, x1 = 0.0145 | – | 1484.7
293 K, x1 = 0.0163 | – | 1485
293 K, x1 = 0.0181 | – | 1485.2
293 K, x1 = 0.0208 | – | 1485.6
293 K, x1 = 0.0234 | – | 1485.9
293 K, x1 = 0.0248 | – | 1486
293 K, x1 = 0.0273 | – | 1486.3
293 K, x1 = 0.0286 | – | 1486.4
293 K, x1 = 0.0302 | – | 1486.5
293 K, x1 = 0.0319 | – | 1486.6
293 K, x1 = 0.0341 | – | 1486.7
293 K, x1 = 0.0384 | – | 1486.7
293 K, x1 = 0.0407 | – | 1486.9
293 K, x1 = 0.0428 | – | 1486.9
298 K, x1 = 0.0027 | – | 1497.1
298 K, x1 = 0.003 | – | 1497.2
298 K, x1 = 0.0048 | – | 1497.4
298 K, x1 = 0.0074 | – | 1497.8
298 K, x1 = 0.0094 | – | 1498.1
298 K, x1 = 0.0109 | – | 1498.3
298 K, x1 = 0.0129 | – | 1498.5
298 K, x1 = 0.0145 | – | 1498.7
298 K, x1 = 0.0163 | – | 1499
298 K, x1 = 0.0181 | – | 1499.2
298 K, x1 = 0.0208 | – | 1499.6
298 K, x1 = 0.0234 | – | 1499.8
298 K, x1 = 0.0248 | – | 1500
298 K, x1 = 0.0273 | – | 1500.2
298 K, x1 = 0.0286 | – | 1500.3
298 K, x1 = 0.0302 | – | 1500.3
298 K, x1 = 0.0319 | – | 1500.5
298 K, x1 = 0.0341 | – | 1500.5
298 K, x1 = 0.0384 | – | 1500.5
298 K, x1 = 0.0407 | – | 1500.7
